Source: US11583532B2, “Triazolopyrimidine derivatives for use as ghrelin o-acyl transferase (GOAT) inhibitors” (Boehringer Ingelheim International GmbH, priority 2018, dated 2023)
Several values for one entry are separate records, joined by “and”; a condition that tells them apart may be missing. Equal values may be shown once.

target: human GOAT (ghrelin O-acyl transferase) (Homo sapiens (Human), UniProt Q96T53); assay: Determination of hGOAT activity in HEK293 cells after incubation with test compound (acyl-ghrelin ELISA); assay type: cell-based; conditions: HEK293 cells stably transfected with preproghrelin and human GOAT cDNA; octanoate-BSA 100 μM; 5 hours incubation; acyl-ghrelin in medium by ELISA; 8 compound concentrations
Sequence (Q96T53 whole entry): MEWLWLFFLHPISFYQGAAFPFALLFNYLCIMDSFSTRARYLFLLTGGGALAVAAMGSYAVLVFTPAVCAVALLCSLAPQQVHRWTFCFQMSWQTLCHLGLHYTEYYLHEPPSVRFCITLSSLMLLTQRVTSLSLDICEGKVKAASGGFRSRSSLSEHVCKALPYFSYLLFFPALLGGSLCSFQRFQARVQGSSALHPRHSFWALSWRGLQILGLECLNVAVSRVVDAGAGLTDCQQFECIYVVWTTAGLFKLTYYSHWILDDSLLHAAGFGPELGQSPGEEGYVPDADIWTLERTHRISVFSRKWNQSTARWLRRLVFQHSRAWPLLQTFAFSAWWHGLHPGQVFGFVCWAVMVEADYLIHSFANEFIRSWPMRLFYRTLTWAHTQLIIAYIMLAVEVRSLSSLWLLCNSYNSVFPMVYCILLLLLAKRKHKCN
Procedure: Determination of hGOAT Activity in HEK293 Cells after incubation with test compound
HEK293 cells stably transfected with two expression vectors, one coding for preproghrelin cDNA and a second for the expression of human GOATcDNA are used as a cellular model. After feeding the cells with octanoic acid for 5 hours, acyl-ghrelin is measured in cell culture medium by an ELISA procedure.
Cellline: Hek293 hGOAT/PPGhrl Clone #1B8Sodium octanoate, Sigma, Cat.-No. C5038
BSA: Sigma, Cat.-No. A8806
BD Poly-D-Lysin 384-well Plates, black-clear polystyrene BD Bioscience Cat.-No. […] ELISA human acylated Ghrelin Kit purchased from Bertin Pharman (detailed composition of buffers e.g. wash-puffer, ELISA buffer not known)
All further reagents used were of highest analytical grade available.
Cells are plated with a density of 5000 cells/well in 384-well poly-D-lysin plates and incubated for 1 day at 37° C., 5% CO2 in DMEM medium, 10% FCS, 1×NEAA, Puromycin (0.5 μg/ml) and G418 (1 mg/ml). Then the medium is changed to a identical medium without FCS and containing Octanoate-BSA (final concentration 100 μM each) and compound in DMSO (final DMSO concentration 0.3%). After incubation for 5 hours acylghrelin in the medium is measured by ELISA.
The medium sample is diluted 1:25 in Elisa buffer, a 25 μl aliquot is transferred to a 384-well ELISA plate previously washed 4 times with 100 μL wash buffer, and 25 μl tracer-solution is added. After incubation overnight (˜20 h) at 4° C. temperature the plate is washed 4 times with 100 μl wash-buffer per well. Finally 50 μl Ellman's reagent is added to each well and the plate is incubated in the dark for 20 minutes. The absorbance is measured at 405 nm in an Envision multilabel reader and the amount of acylated ghrelin is calculated according to a acylated ghrelin standard curve provided in the same plate.
The analysis of the data is performed by calculation of the percentage of acyl-ghrelin produced in the presence of test compound compared to the amount of acyl-ghrelin produced in the vehicle control samples. An inhibitor of the GOAT enzyme will give values between 100% CTL (no inhibition) and 0% CTL (complete inhibition).
IC50 values are calculated with Assay Explorer or other suited software based on curve fitting of results of 8 different compound concentrations.

For Cc1nc2ncnn2c(N)c1Cc1ccc(Br)c(OCC(C)(F)F)n1 [Example 1.1, 6-{[5-Bromo-6-(2,2-difluoropropoxy)pyridin-2-yl]methyl}-5-methyl-[1,2,4]triazolo[1,5-a]pyrimidin-7-amine], which IC50 is on record?
The IC50 was 0.31 nM.

Cc1nc2ncnn2c(N)c1Cc1ccc(OC(F)F)c(Br)c1 [Example 1.2] was tested. Which IC50 did it give?
Its IC50 is 2 nM.

Cc1nc2ncnn2c(N)c1Cc1ccc(C(F)(F)F)c(-c2ccco2)n1 [Example 2.1, 6-{[6-(Furan-2-yl)-5-(trifluoromethyl)pyridin-2-yl]methyl}-5-methyl-[1,2,4]triazolo[1,5-a]pyrimidin-7-amine] was tested. Which IC50 did it give?
Its IC50 is 0.4 nM.

How did the IC50 turn out when Cc1nc2ncnn2c(N)c1Cc1ccc(C(F)(F)F)c(N2CCOCC2)n1 [Example 3.1, 5-Methyl-6-{[6-(morpholin-4-yl)-5-(trifluoromethyl)pyridin-2-yl]methyl}-[1,2,4]triazolo[1,5-a]pyrimidin-7-amine] was run?
The IC50 was 0.65 nM.

For Cc1nc2ncnn2c(N)c1Cc1ccc(C(F)(F)F)c(N2CC(F)(F)C2)n1 [Example 3.3], which IC50 is on record?
The IC50 was 0.32 nM and 0.76 nM.

For Cc1nc2ncnn2c(N)c1Cc1ccc(C(F)(F)F)c(N)n1 [Example 3.4], which IC50 is on record?
Its IC50 is 6.5 nM.

Cc1nc2ncnn2c(N)c1Cc1ccc(OC(F)F)c(Br)n1 [Example 4.1, 6-{[6-Bromo-5-(difluoromethoxy)pyridin-2-yl]methyl}-5-methyl-[1,2,4]triazolo[1,5-a]pyrimidin-7-amine] was tested. Which IC50 did it give?
Its IC50 is 0.3 nM.

Which IC50 does the source give for COc1nc(C(F)(F)F)ccc1Cc1c(C)nc2ncnn2c1N [Example 4.2] here?
Its IC50 is 1.9 nM.

Which IC50 does the source give for Cc1nc2ncnn2c(N)c1Cc1ccc(C(F)(F)F)c(Br)c1 [Example 4.3] here?
Its IC50 is 1.1 nM.

Cc1nc2ncnn2c(N)c1Cc1ccc(OC(F)(F)F)c(Br)c1 [Example 4.4, 6-{[3-bromo-4-(trifluoromethoxy)phenyl]methyl}-5-methyl-[1,2,4]triazolo[1,5-a]pyrimidin-7-amine] was tested. Which IC50 did it give?
Its IC50 is 1.1 nM.

For CCOc1cc(C(F)(F)F)ccc1Cc1c(C)nc2ncnn2c1N [Example 4.5], which IC50 is on record?
The IC50 was 2.4 nM.

How did the IC50 turn out when Cc1nc2ncnn2c(N)c1Cc1ccc(C(F)(F)F)nc1OC1CCC1 [Example 4.6] was run?
The IC50 was 3 nM.

How did the IC50 turn out when CCOc1nc(C(F)(F)F)ccc1Cc1c(C)nc2ncnn2c1N [Example 4.7] was run?
The IC50 was 2.9 nM.

With Cc1nc2ncnn2c(N)c1Cc1cccc(OC(F)F)n1 [Example 4.8] as the compound, how does the IC50 read?
The IC50 was 8.8 nM.

Which IC50 does the source give for Cc1nc2ncnn2c(N)c1Cc1ccc(C(F)F)cc1 [Example 4.9] here?
Its IC50 is 9.8 nM.

Which IC50 does the source give for Cc1nc2ncnn2c(N)c1Cc1ccc(Br)c(OC(F)F)n1 [Example 5.1, 6-{[5-Bromo-6-(difluoromethoxy)pyridin-2-yl]methyl}-5-methyl-[1,2,4]triazolo[1,5-a]pyrimidin-7-amine] here?
Its IC50 is 0.13 nM.

With Cc1nc2ncnn2c(N)c1Cc1ccc(OC(F)(F)F)cc1 [Example 6.1, 5-methyl-6-{[4-(trifluoromethoxy)phenyl]methyl}-[1,2,4]triazolo[1,5-a]pyrimidin-7-amine] as the compound, how does the IC50 read?
The IC50 was 3.9 nM.

Which IC50 does the source give for COc1cc(C(F)(F)F)ccc1Cc1c(C)nc2ncnn2c1N [Example 6.2] here?
The IC50 was 0.69 nM.

How did the IC50 turn out when Cc1nc2ncnn2c(N)c1Cc1ccc(C(F)(F)F)cc1 [Example 6.3] was run?
The IC50 was 3.4 nM.

With Cc1nc2ncnn2c(N)c1Cc1ccc(OC(F)F)cc1 [Example 6.4] as the compound, how does the IC50 read?
The IC50 was 1.9 nM.

How did the IC50 turn out when Cc1nc2ncnn2c(N)c1Cc1ccc(SC(F)(F)F)cc1 [Example 6.5, 5-methyl-6-({4-[(trifluoromethyl)sulfanyl]phenyl}methyl)-[1,2,4]triazolo[1,5-a]pyrimidin-7-amine] was run?
Its IC50 is 1.7 nM.

Cc1nc2ncnn2c(N)c1Cc1ccc(C#N)c(NCC(F)F)n1 [Example 7.1, 6-({7-amino-5-methyl-[1,2,4]triazolo[1,5-a]pyrimidin-6-yl}methyl)-2-[(2,2-difluoroethyl)amino]pyridine-3-carbonitrile] was tested. Which IC50 did it give?
Its IC50 is 0.37 nM.

Which IC50 does the source give for COC(=O)c1cc(Cc2c(C)nc3ncnn3c2N)ccc1C(F)(F)F [Example 7.2] here?
The IC50 was 0.57 nM.

With Cc1nc2ncnn2c(N)c1Cc1ccc(C#N)c(NC2CC(F)(F)C2)n1 [Example 7.3] as the compound, how does the IC50 read?
Its IC50 is 2.3 nM.

For Cc1nc2ncnn2c(N)c1Cc1ccc(C#N)c(OCC(C)(F)F)n1 [Example 7.4], which IC50 is on record?
The IC50 was 1.3 nM.

How did the IC50 turn out when COc1cc(Cc2c(C)nc3ncnn3c2N)ccc1C(F)(F)F [Example 7.5] was run?
Its IC50 is 0.92 nM.

How did the IC50 turn out when Cc1nc2ncnn2c(N)c1Cc1ccc(C#N)c(NCC(F)(F)F)n1 [Example 7.6] was run?
The IC50 was 0.69 nM.

For Cc1nc2ncnn2c(N)c1Cc1ccc(C#N)c(NCCC(F)F)n1 [Example 7.7], which IC50 is on record?
Its IC50 is 0.93 nM.

For Cc1nc2ncnn2c(N)c1Cc1ccc(C#N)c(NCCF)n1 [Example 7.8], which IC50 is on record?
Its IC50 is 1.1 nM.

For Cc1nc2ncnn2c(N)c1Cc1ccc(C#N)c(NCCCF)n1 [Example 7.9], which IC50 is on record?
The IC50 was 1.3 nM.

With Cc1nc2ncnn2c(N)c1Cc1ccc(C#N)c(NCC2CC2(F)F)n1 (stereo not drawn) [Example 7.10] as the compound, how does the IC50 read?
Its IC50 is 6.2 nM.

Which IC50 does the source give for Cc1nc2ncnn2c(N)c1Cc1ccc(Br)c(OCCCF)n1 [Example 8.1, 6-{[5-Bromo-6-(3-fluoropropoxy)pyridin-2-yl]methyl}-5-methyl-[1,2,4]triazolo[1,5-a]pyrimidin-7-amine] here?
The IC50 was 0.27 nM.

For Cc1nc2ncnn2c(N)c1Cc1ccc(Br)c(NCC(F)(F)F)n1 [Example 8.2], which IC50 is on record?
The IC50 was 0.23 nM.

How did the IC50 turn out when Cc1nc2ncnn2c(N)c1Cc1ccc(Br)c(OCCF)n1 [Example 8.3] was run?
Its IC50 is 0.3 nM.

With Cc1nc2ncnn2c(N)c1Cc1ccc(Br)c(OCC(F)F)n1 [Example 8.4] as the compound, how does the IC50 read?
The IC50 was 0.3 nM.

How did the IC50 turn out when Cc1nc2ncnn2c(N)c1Cc1ccc(C#N)c(OCC(F)F)n1 [Example 9.1, 6-({7-Amino-5-methyl-[1,2,4]triazolo[1,5-a]pyrimidin-6-yl}methyl)-2-(2,2-difluoroethoxy)pyridine-3-carbonitrile] was run?
The IC50 was 2.4 nM.

How did the IC50 turn out when Cc1nc2ncnn2c(N)c1Cc1ccc(C#N)c(OCC2(C(F)(F)F)CC2)n1 [Example 9.2] was run?
Its IC50 is 8.3 nM.

How did the IC50 turn out when Cc1nc2ncnn2c(N)c1Cc1ccc(C#N)c(OCCCF)n1 [Example 9.3] was run?
The IC50 was 0.56 nM.

Cc1nc2ncnn2c(N)c1Cc1ccc(C#N)c(OCCF)n1 [Example 9.4] was tested. Which IC50 did it give?
Its IC50 is 3.7 nM.

How did the IC50 turn out when Cc1nc2ncnn2c(N)c1Cc1ccc(C#N)c(OCC(F)(F)F)n1 [Example 9.5] was run?
Its IC50 is 3.9 nM.

For Cc1nc2ncnn2c(N)c1Cc1ccc(Br)c(-n2cc(F)cn2)n1 [Example 10.1, 6-{[5-Bromo-6-(4-fluoro-1H-pyrazol-1-yl)pyridin-2-yl]methyl}-5-methyl-[1,2,4]triazolo[1,5-a]pyrimidin-7-amine], which IC50 is on record?
The IC50 was 0.68 nM.

Which IC50 does the source give for Cc1nc2ncnn2c(N)c1Cc1ccc(Br)c(-n2ccc(C(F)(F)F)n2)n1 [Example 10.2] here?
Its IC50 is 2.8 nM.

For Cc1nc2ncnn2c(N)c1Cc1ccc(Br)c(-n2cc(C(F)(F)F)cn2)n1 [Example 10.3], which IC50 is on record?
The IC50 was 8.6 nM.

With Cc1nc2ncnn2c(N)c1Cc1ccc(OC(F)(F)F)c(N=S(C)(C)=O)c1 [Example 11.1, {[5-({7-Amino-5-methyl-[1,2,4]triazolo[1,5-a]pyrimidin-6-yl}methyl)-2-(trifluoromethoxy)phenyl]imino}dimethyl-λ6-sulfanone] as the compound, how does the IC50 read?
The IC50 was 0.95 nM.

Cc1nc2ncnn2c(N)c1Cc1ccc(OC(F)(F)F)c(N=S2(=O)CCC2)c1 [Example 11.2] was tested. Which IC50 did it give?
The IC50 was 0.68 nM.

With Cc1nc2ncnn2c(N)c1Cc1ccc(OC(F)F)c(C#N)n1 [Example 12.1, 6-({7-Amino-5-methyl-[1,2,4]triazolo[1,5-a]pyrimidin-6-yl}methyl)-3-(difluoromethoxy)pyridine-2-carbonitrile] as the compound, how does the IC50 read?
Its IC50 is 4.4 nM.

Cc1nc2ncnn2c(N)c1Cc1cccc(-c2cn(C)nc2C(F)(F)F)n1 [Example 13.1, 5-Methyl-6-({6-[1-methyl-3-(trifluoromethyl)-1H-pyrazol-4-yl]pyridin-2-yl}methyl)-[1,2,4]triazolo[1,5-a]pyrimidin-7-amine] was tested. Which IC50 did it give?
The IC50 was 1.7 nM.

How did the IC50 turn out when Cc1nc2ncnn2c(N)c1Cc1cccc(-c2c[nH]nc2C(F)(F)F)n1 [Example 13.2] was run?
Its IC50 is 2.1 nM.

With Cc1nc2ncnn2c(N)c1Cc1ccc(Br)c(C2(C#N)CC(F)(F)C2)n1 [Example 14.1, 1-[6-({7-Amino-5-methyl-[1,2,4]triazolo[1,5-a]pyrimidin-6-yl}methyl)-3-bromopyridin-2-yl]-3,3-difluorocyclobutane-1-carbonitrile] as the compound, how does the IC50 read?
The IC50 was 0.31 nM.

How did the IC50 turn out when COC(=O)c1cc(Cc2c(C)nc3ncnn3c2N)ccc1OC(F)(F)F [Example 15.1, Methyl 5-({7-amino-5-methyl-[1,2,4]triazolo[1,5-a]pyrimidin-6-yl}methyl)-2-(trifluoromethoxy)benzoate] was run?
The IC50 was 0.83 nM.

Cc1nc2ncnn2c(N)c1Cc1ccc(OC(F)(F)F)c(C(=O)N(C)C)c1 [Example 15.2, 5-({7-Amino-5-methyl-[1,2,4]triazolo[1,5-a]pyrimidin-6-yl}methyl)-N,N-dimethyl-2-(trifluoromethoxy)benzamide] was tested. Which IC50 did it give?
Its IC50 is 3.5 nM and 5.4 nM.
